This is an account of results in patent US5849782A, “Methods of inhibiting neurodegenerative diseases” (The General Hospital Corporation, priority 1996, dated 1998).

The subject of one experiment is Male Sprague Dawley rats. Description: Salicylate hydroxyl trapping and 3-nitrotyrosine after systemic 3-NP. Format: in vivo, rat. The settings on record: 3-NP 20 mg/kg i.p. every 12 h x3; 7-NI 50 mg/kg. The procedure:
Salicylate assay and 3-nitrotyrosine measurements. The salicylate hydroxyl trapping method of Floyd et al. ((1984) supra, Cao et al. (1988) Neurosci. Lett. 88:233-238, and Hall et al. (1993) J. Neurochem. 60:588-594) was used for measuring ^.cndot. OH radicals in striatal tissue following i.p. administration of 3-NP. Male Sprague Dawley rats weighing 125-150 g (n-10 per group) were injected i.p. every 12 h for 3 times with either (i) saline, (ii) 20 mg/kg of 3-NP and peanut oil vehicle, or (iii) 20 mg/kg of 3-NP and 7-NI dissolved in peanut oil. […] Salicylate and its metabolites 2,3 and 2,5 dihydroxybenzoic acid (DHBA) were quantified by HPLC with 16-electrode electrochemical detection (Beal et al. (1990) supra). Salicylate, 2,3 and 2,5 DHBA, tyrosine and 3-nitrotyrosine were measured electrochemically by oxidation at 840, 240, 120 mV, 600 mV, and 840 mV, respectively. The data were expressed as the ratio of 2,3 and 2,5 DHBA to salicylate and 3-nitrotyrosine concentrations for differing brain concentrations of salicylate and tyrosine, which could be a consequence of impairment of the blood-brain barrier (salicylate) or neuronal loss during treatment (tyrosine).

Another experiment relates to Male Sprague-Dawley rats. As to the kind of experiment: Spontaneous striatal electrophysiological activity. The settings on record: 60 minutes after 50 mg/kg 7-NI; urethane anesthetized rats.
A further experiment has as its system rats. As to the kind of experiment: Striatal lesions produced by systemic 3-NP. It is filed as in vivo, rat. The procedure: Systemic 3-NP treatment. 3-NP was diluted in water and adjusted to pH 7.4 with NaOH and administered at a dose of 10 mg/kg i.p. every 12 h. With this dosing regimen the animals become acutely ill after 4 to 5 days and show large striatal lesions. (Beal et al. (1993) J. Neurosci. 13:4181-4192.) At the same time points, 25 mg/kg of 7-NI dissolved in peanut oil at a concentration of 10 mg/ml (treated group) or vehicle alone (peanut oil, control group) was administered s.c.. Since there was variability in the times at which animals became ill, they were clinically examined 3 hours after the injections and 1 animal of each group was sacrificed when an animal was acutely ill, regardless of whether it was a vehicle treated control or a 7-NI treated animal. In an initial experiment 12 animals per group were studied. Following sacrifice, striatal lesion size was assessed by TTC staining.
In a second experiment, 5 animals per group were studied with the same treatment paradigm. Since the first experiment had shown by pairwise sacrifice that the vehicle treated animals always became ill before the 7-NI treated animals, a third experimental group of 5 animals was included to determine whether 7-NI treated animals become ill following administration of 3-NP. […] In this experiment animals were deeply anesthetized and transcardially perfused with ice cold saline, followed by phosphate buffered 4% paraformaldehyde (Beal et al. (1991) J. Neurosci. 11:1649-1659). Brains were sectioned at 50 μm intervals on a freezing microtome. Combined staining for Nissl substance and NADPH-diaphorase was performed. Adjacent sections were stained by immunohistochemistry with antibodies against ^8 -hydroxy-2deoxyguanosine.

Structures are written as SMILES.

Method for Male Sprague-Dawley rats: Electrophysiology. Four male Sprague-Dawley rats weighing 300 to 400 g were used for electrophysiological studies. Animals were anesthetized with urethane 1.5 g/kg i.p. and placed in a stereotaxic apparatus with their body temperatures maintained at 37° C. by a feedback heating pad. A 0.5×0.5 cm craniotomy was made and recording electrodes were placed in the anterior striatum using stereotaxic coordinates and aural monitoring. Following electrode placement the craniotomy was covered with 4% agar in saline and 30 min were allowed for stabilization before recordings were made. The spontaneous activity of multiple units were recorded extracellularly in the striatum, 3-4 mm anterior to the bregma and 3-4 mm lateral to the midline at a depth of 2.5-4.0 mm using commercially available tungsten microelectrodes (4 M.OMEGA. at 1 kHz, F. Haer, Inc.). […] Data acquisition and analysis of mean firing rate was performed using Discovery.COPYRGT., Experimenters WorkBench.COPYRGT. and Personal Scientific Workstation.COPYRGT. software (DataWave Technologies, Longmont, Colo.). We investigated the electrophysiological effects of the NMDA antagonist MK-801 and the NOS inhibitor 7-NI. […] Finally, spontaneous activity was recorded after the NMDA channel mediated activity was blocked by injection of MK-801 (4 mg/kg).

On to `O=[N+]([O-])c1cccc2cn[nH]c12` [7-NI, 7-nitroindazole], for which, in the experiment with Male Sprague Dawley rats, the “3-NP-induced increase of 2,3 and 2,5 DHBA” value is recorded as “significantly attenuated”; the “3-NP-induced increase of 3-nitrotyrosine in striatum” value is reported as “significantly attenuated”. Moreover, the “mean spontaneous firing rate in striatum” value in the experiment on Male Sprague-Dawley rats is “not significantly different from the baseline”. Further, the “protection of striatum from 3-NP lesions (Nissl/NADPH-diaphorase histology)” value in the experiment on rats (3-NP 10 mg/kg every 12 h with 7-NI, n=5) is “completed protected”. Also, the “striatal lesions produced by 3-NP (TTC staining)” value in the experiment with rats (3-NP 10 mg/kg i.p. every 12 h, 7-NI 50 mg/kg every 12 h as printed) is given as “completely prevented”. Also, the “median accumulative 3-NP dose at first symptoms” value in the experiment on rats (12 h) came out at 130 mg/kg.
